This is an account of results in patent US20100167396A1, “Application of Anti-Apoptotic Gene Expression in Mammalian Cells for Perfusion Culture” (BAYER HEALTHCARE LLC, priority 2006, published 2010).

In assay [1] the test system is blank vector and parental BHK-FVIII cell lines. In words: Thapsigargin-induced caspase-3 activation, control cell lines. Format: cell-based, hamster. To be noted: 24 hours after 2 μM thapsigargin treatment. As for the experimental part:
(§1) Cells were seeded at a density of 5×10^6 cells/mL in shake flasks and cultured in an incubator maintained at 37° C. and 5% CO2. The culture was examined every 24 hours for viability, caspase-3 activation, Annexin-V binding assay, and nutrient measurements. Cell count was performed by trypan blue exclusion assay using a Cedex cell counting device (Innovatis, Bielefeld, Germany). Caspase-3 activation was detected using a Guava PCA system (Guava Technologies, Hayward, Calif.). Cells were washed with cold PBS, fixed with Cytofix/Cytoperm solution (BD Pharmingen, San Diego, Calif.), and then stained with PE-conjugated monoclonal active caspase-3 antibody (BD Pharmingen) before analyzing with the Guava system. For the Annexin-V binding assay, cells were collected and incubated using a Guava Nexin kit and analyzed on the Guava PCA system according to manufacturer's instructions (Guava Technologies). Levels of glutamine, glutamate, glucose, and lactate were measured by the YSI analyzer (YSI Life Sciences, Yellow Springs, Ohio).
(§2) The engineered cell lines Aven-E1B-19K #22 and E1B-19K #6, in addition to the blank vector and the parental cell lines were treated with thapsigargin in shake flask culture. […] To examine apoptosis induction, caspase-3 activation was evaluated 24 hours after thapsigargin treatment.

In assay [2] the test system is E1B-19K #6 and Aven-E1B-19K #22 BHK-FVIII cell lines. The assay can be described thus: Thapsigargin-induced caspase-3 activation, engineered cell lines. The format is cell-based, hamster. To be noted: 24 hours after 2 μM thapsigargin treatment, anti-apoptosis engineered cell lines. As for the experimental part: as §1, §2

`C/C=C(/C)C(=O)O[C@H]1C(C)=C2[C@H]([C@@H]1OC(=O)CCCCCCC)[C@@](C)(OC(C)=O)C[C@H](OC(=O)CCC)[C@@]1(O)[C@H]2OC(=O)[C@@]1(C)O` [thapsigargin]: the entries for the “percentage of caspase-3 activated cells” value in assay [1] and in assay [2] were “Approximately 20%” and “less than 5%”, respectively.
